Key:
Test in all cases: relative viability (nuclei count vs DMSO), 5 days (fraction); higher = more cells survive
[1] = compound: C1=CC(=CC=C1C2=CC(=C(S2)NC(=O)N)C(=O)N)F [TPCA-1] + CC(C)C[C@H](NC(=O)[C@H](Cc1ccccc1)NC(=O)c1cnccn1)B(O)O [Bortezomib] (partner 0.002 µM)
Outline: (§1)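 Relative viability divides the nuclei count in treated wells by that in vehicle wells. Lung cancer cell lines were seeded in 1536-well plates, dosed by pin tool the next day, and fixed and stained after 5 days in one step with final 0.05% Triton X-100, 1% formaldehyde and 1 ug/ml Hoechst. Dosing was a single drug or a fixed anchor-drug dose plus five library-drug doses (not always all listed) in √10 steps, and values are medians of duplicate plates imaged at 4×.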

[2] = compound: C1=CC(=CC=C1C2=CC(=C(S2)NC(=O)N)C(=O)N)F [TPCA-1] + C[C@]1(O)C[C@@H](c2nc(-c3ccc4ccc(-c5ccccc5)nc4c3)c3c(N)nccn32)C1 [Linsitinib] (partner 1 µM)
Outline: as §1

[3] = compound: C1=CC(=CC=C1C2=CC(=C(S2)NC(=O)N)C(=O)N)F [TPCA-1] + O=C(c1cc(Cc2n[nH]c(=O)c3ccccc23)ccc1F)N1CCN(C(=O)C2CC2)CC1 [Olaparib] (partner 8 µM)
Outline: as §1

[4] = compound: C[C@]12O[C@H](C[C@]1(O)CO)n1c3ccccc3c3c4c(c5c6ccccc6n2c5c31)CNC4=O [Lestaurtinib] + C[C@@H](Oc1cc(-c2cnn(C3CCNCC3)c2)cnc1N)c1c(Cl)ccc(F)c1Cl [Crizotinib] (partner 1 µM)
Outline: as §1

UMC-11
relative viability ([1]; first compound 0.04 µM): 0.663 | relative viability ([1]; first compound 0.1265 µM): 0.667 | relative viability ([1]; first compound 0.4 µM): 0.798 | relative viability ([1]; first compound 1.265 µM): 0.735 | relative viability ([1]; first compound 4 µM): 0.134 | relative viability ([2]; first compound 0.04 µM): 1.03 | relative viability ([2]; first compound 0.1265 µM): 1 | relative viability ([2]; first compound 0.4 µM): 1.04 | relative viability ([2]; first compound 1.265 µM): 0.918 | relative viability ([2]; first compound 4 µM): 0.615 | relative viability ([3]; first compound 0.04 µM): 0.365 | relative viability ([3]; first compound 0.1265 µM): 0.455 | relative viability ([3]; first compound 0.4 µM): 0.405 | relative viability ([3]; first compound 1.265 µM): 0.381 | relative viability ([3]; first compound 4 µM): 0.42 | relative viability ([4]; first compound 0.005 µM): 0.5 | relative viability ([4]; first compound 0.01581 µM): 0.6 | relative viability ([4]; first compound 0.05 µM): 0.416 | relative viability ([4]; first compound 0.1581 µM): 0.248 | relative viability ([4]; first compound 0.5 µM): 0.107

Source: the supplement of paper PMC10307832
